Columns and labels:
VCaP cells = assay: MTT cell growth, VCaP; format: cell-based
Experimental: (§1) Identification of a 3α-oxidoreductase inhibitors: Various non-steroidal compounds were tested for anti-neoplastic activity by screening against PC-3 CaP cells. Coumarin-labeled androgens were developed to track changes in androgen metabolism pathways in response to castration or androgen metabolism inhibition using in vitro and in vivo CaP cell models.
(§2) VCaP, CWR-R1 and PC-3 cells were treated for six days with complete culture media (CM), serum-free culture media (SFM), bicalutamide (Bic) at 10 μM, the coumarin C at 20 μM, DHT at 10 nM, DHT-17C at 20 nM and DHT-3C at 20 nM (FIG. 20). […] MTT analysis was performed to compare cell growth impairment of VCaP cells treated with DHT-17C versus enzalutamide. Cells were treated with DHT-17C at 1 nM, 12 nM, 20 nM, 50 nM or 100 nM concentrations, or enzalutamide at 1 μM, 12 μM, 20 μM, 50 μM or 100 μM concentrations. […] MTT performed using ezanlutamide (20 uM) or DHT-17C (50 nM) treated mutant AR and AR-V7 positive CWR-R1 cells supported VCaP MTT data (FIG. 22).

RDH16-YFP [1] = molecular target: T1, RDH16-YFP (Homo sapiens, UniProt O75452); assay: ImageStream co-localization with RDH16-YFP; format: cell-based; details: PC-3-RDH16-YFP cells
T1 construct: expressed in transfected cells; host or cells: PC-3
T1 sequence (O75452 1-317): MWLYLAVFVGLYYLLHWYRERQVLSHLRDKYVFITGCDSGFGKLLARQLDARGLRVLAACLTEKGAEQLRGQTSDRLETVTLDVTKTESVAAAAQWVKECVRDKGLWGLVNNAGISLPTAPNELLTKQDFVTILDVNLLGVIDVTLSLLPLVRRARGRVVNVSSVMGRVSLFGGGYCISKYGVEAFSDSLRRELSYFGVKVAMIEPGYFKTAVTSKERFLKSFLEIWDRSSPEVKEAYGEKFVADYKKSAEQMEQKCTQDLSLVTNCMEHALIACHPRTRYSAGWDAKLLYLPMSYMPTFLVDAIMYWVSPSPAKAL
Experimental: (§3) ImageStream (ImageStream^X-MKII Flow Cytometer [Amnis, Seattle, WA]) is a hybrid technique that combines the statistical power of flow cytometry and the imaging capability of fluorescence microscopy that was adapted to study simultaneously DIOL-17C compartmental localization and activity. ImageStream data were normalized against single-stained controls and analyzed using Image Data Exploration and Analysis Software (IDEAS; Amnis). The similarity score was measured by comparing two images of the same cell pixel by pixel. If the similarity score was >0, the two objects (RDH16-YFP and DIOL-17C) were co-localized.

RDH16-YFP [2] = molecular target: T1, RDH16-YFP; assay: ImageStream competition for RDH16-YFP; format: cell-based; details: PC-3 cells that stably expressed RDH16-YFP
Experimental: as §3

3α-oxidoreductase = assay: LC-MS/MS of CaP cells treated with DIOL-17C; format: in vitro ADME
KLK2 [3] = assay: qRT-PCR of AR-regulated gene KLK2; format: cell-based; details: 24 hours; VCaP, LAPC-4, LNCaP, CWR-R1 and 22rv1 cells
KLK2 [4] = assay: Western blot of AR-regulated protein expression; format: cell-based; details: CaP cell lines
ARE-luciferase = ARE-luciferase transactivation; format: cell-based
CWR-R1 cells = assay: MTT cell growth, CWR-R1; format: cell-based, human; details: six days
Experimental: as §1, §2

LAPC-4 cells = assay: MTT cell growth, LAPC-4; format: cell-based; details: six days; data not shown
LNCaP cells = assay: MTT cell growth, LNCaP; format: cell-based; details: six days; data not shown
22Rv1 cells = assay: MTT cell growth, 22Rv1; format: cell-based; details: six days; data not shown
PC-3 cells = assay: MTT cell growth, AR-negative PC-3; format: cell-based; details: six days, 20 nM
Experimental: as §1, §2

DU145 cells = assay: MTT cell growth, DU145; format: cell-based; details: AR-negative
[5] = system: CV-1 monkey kidney cell line; assay: MTT cell growth, CV-1; format: cell-based; details: non-CaP cell line
[6] = system: 293 human kidney cell line; assay: MTT cell growth, 293; format: cell-based; details: non-CaP cell line
AR-GFP [7] = molecular target: T2, AR-GFP (Homo sapiens, UniProt P10275); assay: ImageStream nuclear co-localization with AR-GFP; format: cell-based; details: VCaP-AR-GFP and PC-3-AR-GFP cells
T2 construct: expressed in transfected cells; host or cells: VCaP, PC-3 (also LAPC-4, CWR-R1, 22Rv1, DU145)
T2 sequence (P10275 1-920): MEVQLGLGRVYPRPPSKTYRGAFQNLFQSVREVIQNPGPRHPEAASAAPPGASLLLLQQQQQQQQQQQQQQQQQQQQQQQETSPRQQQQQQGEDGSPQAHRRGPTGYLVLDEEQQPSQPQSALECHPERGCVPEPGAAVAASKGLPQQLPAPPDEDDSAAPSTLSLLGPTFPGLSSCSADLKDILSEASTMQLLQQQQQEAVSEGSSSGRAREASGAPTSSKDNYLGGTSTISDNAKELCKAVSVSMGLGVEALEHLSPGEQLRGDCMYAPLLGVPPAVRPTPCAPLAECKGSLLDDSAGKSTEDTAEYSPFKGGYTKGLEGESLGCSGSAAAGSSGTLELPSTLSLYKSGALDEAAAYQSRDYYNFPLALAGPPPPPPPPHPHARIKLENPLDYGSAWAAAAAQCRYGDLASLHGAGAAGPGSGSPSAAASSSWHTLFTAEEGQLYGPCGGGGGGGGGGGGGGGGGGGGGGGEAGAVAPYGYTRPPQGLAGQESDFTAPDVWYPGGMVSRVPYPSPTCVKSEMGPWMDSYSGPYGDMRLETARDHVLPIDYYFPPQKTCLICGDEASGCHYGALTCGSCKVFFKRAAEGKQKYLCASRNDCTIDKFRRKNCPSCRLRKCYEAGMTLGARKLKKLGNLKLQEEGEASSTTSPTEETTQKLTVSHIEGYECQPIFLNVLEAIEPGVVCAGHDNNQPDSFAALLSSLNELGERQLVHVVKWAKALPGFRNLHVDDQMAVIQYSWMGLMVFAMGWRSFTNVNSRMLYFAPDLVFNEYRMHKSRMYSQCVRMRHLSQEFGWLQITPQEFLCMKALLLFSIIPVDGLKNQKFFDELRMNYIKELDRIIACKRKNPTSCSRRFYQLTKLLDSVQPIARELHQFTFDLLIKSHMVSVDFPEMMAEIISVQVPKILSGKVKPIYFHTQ
From the text: Androgen-sensitive AR-positive LAPC-4 and VCaP, castration-recurrent and AR-positive CWR-R1 and CWR-22rv1 (22rv1), and AR-negative PC-3 and DU145 cells were transfected with either an empty pCMV expression plasmid (control) or a pCMV plasmid that encoded a wild-type AR tagged with a C-terminal green fluorescent protein (GFP; AR-GFP). AR-positive CaP cell lines were transfected with AR-GFP to assess if DHT-17C or DHT-3C co-localized with AR and translocated to the nucleus.
AR positive CaP cell lines were treated for 16 hours with androgen-free, serum-free complete media (SFM) alone, or SFM that contained 20 nM or 50 nM fluorescent-androgens or C alone. The time points were chosen to measure differences in uptake of the fluorescent-androgens and nuclear or cytosolic localization of the fluorescent-androgens and/or AR-GFP.
Serum-free complete media (SFM)^2 was used to androgen deprive cells.

AR-V2-GFP = molecular target: T3, AR-V2-GFP (Homo sapiens, UniProt P10275); assay: ImageStream co-localization with AR-V2-GFP; format: cell-based; details: VCaP and PC-3 cells that stably expressed AR-V2-GFP
T3 construct: stably expressed AR170 LBD only with splice variant V2 (AR-V2-GFP); expressed in transfected cells; host or cells: VCaP, PC-3
T3 sequence (P10275 1-388 isoform P10275-2): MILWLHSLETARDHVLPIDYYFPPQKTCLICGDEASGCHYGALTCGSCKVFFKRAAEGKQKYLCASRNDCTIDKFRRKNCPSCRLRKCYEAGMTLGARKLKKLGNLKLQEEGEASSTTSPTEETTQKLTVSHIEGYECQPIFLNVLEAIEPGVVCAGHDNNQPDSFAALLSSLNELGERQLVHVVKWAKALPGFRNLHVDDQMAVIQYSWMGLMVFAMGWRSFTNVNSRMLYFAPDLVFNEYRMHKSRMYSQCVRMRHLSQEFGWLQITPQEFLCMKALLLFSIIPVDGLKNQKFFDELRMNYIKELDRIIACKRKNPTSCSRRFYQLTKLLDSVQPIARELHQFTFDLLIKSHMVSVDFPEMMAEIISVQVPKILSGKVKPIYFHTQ
Experimental: ImageStream studies were repeated using VCaP and PC-3 cells that stably expressed AR-V2 (splice-variant that lacked the N-terminus) with C-terminal GFP (AR-V2-GFP). […] ImageStream data was confirmed using immunoprecipation (IP) studies performed with a DHT-targeted antibody.
Serum-free complete media (SFM)^2 was used to androgen deprive cells. PC-3 cells that contained empty plasmid were treated with SFM alone, SFM with C or SFM with DHT-3C.

AR-GFP [8] = molecular target: T2, AR-GFP; format: cell-based; details: DHT-17C versus enzalutamide
From the text: (§4) ImageStream was used to perform competition studies between DHT-17C and enzalutamide for AR-GFP or AR-V2 to establish that DHT-17C targets the AR-LBD.

AR-V2 = molecular target: T4, AR-V2 (Homo sapiens, UniProt P10275); format: cell-based; details: DHT-17C versus enzalutamide
T4 construct: stably expressed AR170 LBD only with splice variant V2 (AR-V2-GFP); expressed in transfected cells; host or cells: VCaP, PC-3
T4 sequence (P10275 1-388 isoform P10275-2): T3 sequence (P10275 1-388 isoform P10275-2)
From the text: as §4

C[C@]12CCC3C(CC[C@H]4C[C@H](O)CC[C@]34C)C1CC[C@@H]2OCC(=O)NCCc1cc(=O)oc2c3c4c(cc12)CCCN4CCC3 (stereo partly drawn) [DIOL-17C, N-2′-(2,3,4,5-Tetrahydro-1H,4H-10-keto-11-oxa-3α-azabenzo[de]anthracenyl)ethyl (3α-hydroxy-5α-androstan-17β-yl)glycolamide]
CaP cell growth (MTT) (VCaP cells; 20 nM, 6 days in SFM, FIG. 14 VCaP): impaired CaP cell growth | co-localization with RDH16-YFP and DRAQ5 in the nucleus (RDH16-YFP [1]): co-localized with RDH16-YFP | competition for RDH16-YFP (RDH16-YFP [2]): compete for RDH16-YFP | 3α-oxidoreductase metabolism to DHT-17C (3α-oxidoreductase): did not impair 3α-oxidoreductase metabolism of DIOL-17C to DHT-17C | free DIOL and orphan coumarin produced by cells (3α-oxidoreductase): No orphan fluorophores were detected

C[C@]12CCC(=O)C[C@@H]1CC[C@@H]1[C@@H]2CC[C@]2(C)[C@@H](O)CC[C@@H]12 [DHT, 5α-dihydrotestosterone, reference compound]
KLK2 transcript induction (KLK2 [3]): produced similar inductions of expression | AR-regulated protein expression levels (KLK2 [4]): produced similar AR-regulated protein expression levels | ARE-luciferase signal (ARE-luciferase): produced ARE-luciferase signal

C[C@]12CCC3C(CC[C@H]4CC(=O)CC[C@]34C)C1CC[C@@H]2OCC(=O)NCCc1cc(=O)oc2c3c4c(cc12)CCCN4CCC3 (stereo partly drawn) [DHT-17C, N-2′-(2,3,4,5-Tetrahydro-1H,4H-10-keto-11-oxa-3α-azabenzo[de]anthracenyl)ethyl (3-keto-5α-androstan-17β-yl)glycolamide]
dose lower than enzalutamide for VCaP growth inhibition (VCaP cells; DHT-17C 20 nM vs enzalutamide 20 μM, AR-V7 positive VCaP): 1000 × | VCaP cell growth impairment versus enzalutamide (VCaP cells; DHT-17C at 1, 12, 20, 50 or 100 nM): impaired VCaP cell growth to similar extents as enzalutamide | VCaP cell growth (MTT) (VCaP cells; six days, DHT-17C at 20 nM, DHT-3C at 20 nM): impaired VCaP and CWR-R1 cell growth | VCaP cell growth, combination with bicalutamide (VCaP cells; six days, bicalutamide 10 μM, p-values<0.05): enhanced the effect of bicalutamide | CWR-R1 cell growth (MTT) (CWR-R1 cells; DHT-17C at 20 nM, DHT-3C at 20 nM): impaired VCaP and CWR-R1 cell growth | CWR-R1 cell growth, combination with bicalutamide (CWR-R1 cells; bicalutamide 10 μM, p-values<0.05): enhanced the effect of bicalutamide | LAPC-4 cell growth (MTT) (LAPC-4 cells): produced similar responses | LNCaP cell growth (MTT) (LNCaP cells): produced similar responses | 22Rv1 cell growth (MTT) (22Rv1 cells): produced similar responses | PC-3 cell growth (MTT) (PC-3 cells): did not impair cell growth | DU145 cell growth (MTT) (DU145 cells): did not impair cell growth | CV-1 cell growth (MTT) [5]: did not impair cell growth | 293 cell growth (MTT) [6]: did not impair cell growth | nuclear co-localization with AR-GFP and DRAQ5 (AR-GFP [7]): co-localized with AR-GFP | co-localization with AR-V2-GFP (AR-V2-GFP): co-localized with DRAQ5 and AR-V2-GFP | competition for the AR-LBD of wild-type AR (AR-GFP [8]): compete for the AR-LBD of wild-type AR and AR-V2 | competition for the AR-LBD of AR-V2 (AR-V2): compete for the AR-LBD of wild-type AR and AR-V2 | KLK2 transcript induction (KLK2 [3]): did not induce KLK2 transcript formation

C[C@]12CC[C@@H](O)C[C@@H]1CC[C@@H]1[C@@H]2CC[C@]2(C)[C@@H](O)CC[C@@H]12 [DIOL, 5α-androstane-3α,17β-diol, reference compound]
competition for RDH16-YFP (RDH16-YFP [2]): compete for RDH16-YFP | ARE-luciferase signal (ARE-luciferase): produced ARE-luciferase signal

— US12337004B2, “Coumarin-modified androgens for the treatment of prostate cancer” (Health Research, Inc., priority 2019, dated 2025)
